Assays:
Format in all cases: cell-based
human PBMC = experiment: Decitabine-stimulated human PBMC assay (IFN-β, cell viability); settings: anti-CD3/anti-CD28, decitabine 10 μM, 5 days
Experimental: EasySep buffer (32 mL, […] Technologies, cat. #20144) was used to dilute 8 mL of LRSC buffy coat (from fresh Leukopak) with gentle mixing. The diluted buffy coat (20 mL) was transferred into each of two SepMate 50 tubes, and the tubes were filled with 15 mL of Lyphoprep ([…], cat. #07851) density gradient. The SepMate tubes were then centrifuged at 1200G for 10 minutes at room temperature with the brake on. The top layer of supernatant was collected in SepMate tubes by quickly pouring it into a new 50 mL conical tube. The PBMCs were washed with EasySep buffer ×2 by centrifuging at 300G for 5 minutes. The cells were resuspended in 30 mL of EasySep and centrifuged at 100G for 5 minutes with the brake off, and the platelets were removed. The cells were then resuspended in 6 mL of 1×RBC lysis buffer (Invitrogen) and incubated at 37° C. for 5 minutes. 25 mL of EasySep buffer was then mixed into the tube and centrifuged at 300G for 5 minutes. The cells were resuspended in 10 mL of EasySep buffer and the cells were then counted with Cellometer (AO/PI). The PBMCs were resuspended in RPMI1640 (ThermoFisher)^+10% FBS (HyClone)^+μ/s at 3×10^6/mL. The PBMCs (100 μL, 300 k PBMCs) were then seeded in a 96-well flat bottom microplate (Corning) that had been precoated with 100 μL of anti-CD3 antibody (10 μg/mL in PBS, Biolegend) or PBS at 4° C., one day before the assay was commenced.
To each well the following solutions were added 1) 100 μL of cells (final cell number per well is 3×10^5 cell/well); 2) 25 μL of anti-CD28 antibody at 6×(5 μg/mL final concentration, Biolegend); 3) 25 μL of decitabine at 6×(10 μM final concentration); and 4) Compound in DMSO was dispensed directly into each well with a d300e digital dispenser (Tecan). The final concentration of DMSO for each well was normalized to 0.3%. The plate was incubated at 37° C. without any agitation for 5 days. Samples were collected 120 hours after incubation to determine IFN-0 and IL-2 levels using a U-PLEX Human IFN-β Assay Sector (5PL) (MSD, cat. #K151VIK-2).
After 5 days, the plate was spun down at 100×G for 5 minutes. Supernatants (100 μL) were collected for interferon β(IFN-β) analysis using the MSD assay noted above, and any residual supernatant was stored at −80° C.

[1] = biological target: T1, LINE1 reverse transcriptase (Homo sapiens, UniProt O00370); experiment: Stable artificial-intron Cis LINE1 reporter assay (HeLa Tet-On 3G, Firefly luciferase); settings: HeLa L1 artificial-intron reporter cells, doxycycline 500 ng/mL, 72 h, class symbols
T1 construct: expressed in transfected cells; host or cells: HeLa Tet-On 3G (Takara, cat no 631183)
T1 sequence (O00370 whole entry, looked up): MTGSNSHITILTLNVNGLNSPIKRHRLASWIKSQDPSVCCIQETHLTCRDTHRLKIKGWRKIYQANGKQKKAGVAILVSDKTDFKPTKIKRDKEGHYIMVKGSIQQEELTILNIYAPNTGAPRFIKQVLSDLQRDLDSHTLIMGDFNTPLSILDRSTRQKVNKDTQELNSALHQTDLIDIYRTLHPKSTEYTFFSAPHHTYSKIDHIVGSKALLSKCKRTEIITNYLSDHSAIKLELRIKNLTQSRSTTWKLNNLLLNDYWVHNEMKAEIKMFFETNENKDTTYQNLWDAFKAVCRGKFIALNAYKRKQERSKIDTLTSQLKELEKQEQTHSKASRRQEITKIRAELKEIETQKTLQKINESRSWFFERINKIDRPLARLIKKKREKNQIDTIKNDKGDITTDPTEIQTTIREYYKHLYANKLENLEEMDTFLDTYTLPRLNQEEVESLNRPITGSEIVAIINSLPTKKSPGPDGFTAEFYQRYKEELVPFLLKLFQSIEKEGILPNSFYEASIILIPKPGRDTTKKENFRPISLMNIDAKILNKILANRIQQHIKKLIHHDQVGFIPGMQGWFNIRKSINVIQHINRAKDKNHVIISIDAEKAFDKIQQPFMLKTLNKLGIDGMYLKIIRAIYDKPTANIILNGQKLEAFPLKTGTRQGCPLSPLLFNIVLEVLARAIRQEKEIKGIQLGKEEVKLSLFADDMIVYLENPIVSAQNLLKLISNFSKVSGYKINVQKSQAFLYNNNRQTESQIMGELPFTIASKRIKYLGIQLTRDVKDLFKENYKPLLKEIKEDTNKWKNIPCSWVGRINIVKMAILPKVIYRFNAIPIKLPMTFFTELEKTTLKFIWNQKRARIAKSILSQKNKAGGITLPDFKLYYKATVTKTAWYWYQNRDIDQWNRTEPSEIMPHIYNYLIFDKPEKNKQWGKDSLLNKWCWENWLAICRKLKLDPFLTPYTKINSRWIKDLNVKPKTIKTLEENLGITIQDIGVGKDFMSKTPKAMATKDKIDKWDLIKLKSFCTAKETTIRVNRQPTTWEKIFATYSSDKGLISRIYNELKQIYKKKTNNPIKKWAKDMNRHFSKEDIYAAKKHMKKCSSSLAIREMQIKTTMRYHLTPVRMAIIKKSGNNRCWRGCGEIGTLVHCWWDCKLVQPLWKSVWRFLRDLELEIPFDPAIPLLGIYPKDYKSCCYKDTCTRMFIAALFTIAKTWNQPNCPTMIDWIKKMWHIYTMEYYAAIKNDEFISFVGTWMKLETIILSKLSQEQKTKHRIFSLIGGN
Procedure, shortened: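 HeLa Tet-On 3G clone stably carrying a bi-directional doxycycline-inducible artificial-intron LINE1 reporter, plated at 8,000 cells/well onto serially diluted compound. Expression induced with 500 ng/mL doxycycline (final); Firefly luciferase luminescence (Dual-Glo) read 72 h after plating as LINE1 activity.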

THP1 Dual TREX1 KO cells = experiment: THP1 TREX1 KO inhibition assay, combination dosing (stampidine and Compound 2); settings: combination of stampidine and Compound 2; k>0 denotes synergy
Experimental: Exemplary compounds were tested to determine the effect of combined dosing of two compounds on the type 1 interferon response in THP1 Dual TREX1 KO cells treated with 5-aza-2′-deoxycytidine. Assay procedures and results are described below.
THP1 Dual TREX1 KO cells were purchased from InvivoGen. The THP1-Dual™ KO-TREX1 cells were cultured in RPMI 1640, 10% heat-inactivated fetal bovine serum, 25 mM HEPES, 10 μg/mL blasticidin, and 100 μg/mL Zeocin. THP1-Dual™ KO-TREX1 cells were treated with a dose titration of test compound in the presence of 1 μM 5-aza-2′-deoxycytidine (Sigma, cat #189825). Type 1 Interferon and cell viability were assessed after five days of treatment.
Stock solution of test compounds stampidine and Compound 2 were prepared in DMSO followed by a three-fold dilution in DMSO. […]
THP1-Dual™ KO-TREX1 cells were treated with 1 μM 5-aza-2′-deoxycytidine. […] Luminescence was detected on a plate reader according to manufacturer's instructions. […]
The remaining cells were assessed for cell viability by adding 30 μl of CellTiter-Glo (Promega, G9683) solution to each well, and placed on a shaker for 10 minutes at room temperature. Luminescence was detected on a plate reader, according to manufacturer's instructions. […]

Nc1ccn([C@H]2C[C@H](O)[C@](CO)(CCl)O2)c(=O)n1 [Compound 2, 4-amino-1-((2R,4S,5R)-5-(chloromethyl)-4-hydroxy-5-(hydroxymethyl)tetrahydrofuran-2-yl)pyrimidin-2(1H)-one]
IFN-β level (human PBMC): inhibition of IFN-0 | IC50 [1]: ≤ 0.05 µM | best BRAID fit k (THP1 Dual TREX1 KO cells): 2.00 (0.583-3.64)

From patent US20230295212A1 (ROME Therapeutics, Inc., priority 2022, published 2023)
